This is an account of results in ChEMBL document CHEMBL1909046, “DrugMatrix in vitro pharmacology data”.

Experiment [1] has as its target T1, Polyunsaturated fatty acid lipoxygenase ALOX15 (Oryctolagus cuniculus, UniProt P12530).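 Further: inhibition of 15-lipoxygenase enzyme activity measured with linoleic acid as the substrate; in other assays of this panel Not Active means under 50% inhibition at 10 µM.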
T1 sequence (P12530 whole entry): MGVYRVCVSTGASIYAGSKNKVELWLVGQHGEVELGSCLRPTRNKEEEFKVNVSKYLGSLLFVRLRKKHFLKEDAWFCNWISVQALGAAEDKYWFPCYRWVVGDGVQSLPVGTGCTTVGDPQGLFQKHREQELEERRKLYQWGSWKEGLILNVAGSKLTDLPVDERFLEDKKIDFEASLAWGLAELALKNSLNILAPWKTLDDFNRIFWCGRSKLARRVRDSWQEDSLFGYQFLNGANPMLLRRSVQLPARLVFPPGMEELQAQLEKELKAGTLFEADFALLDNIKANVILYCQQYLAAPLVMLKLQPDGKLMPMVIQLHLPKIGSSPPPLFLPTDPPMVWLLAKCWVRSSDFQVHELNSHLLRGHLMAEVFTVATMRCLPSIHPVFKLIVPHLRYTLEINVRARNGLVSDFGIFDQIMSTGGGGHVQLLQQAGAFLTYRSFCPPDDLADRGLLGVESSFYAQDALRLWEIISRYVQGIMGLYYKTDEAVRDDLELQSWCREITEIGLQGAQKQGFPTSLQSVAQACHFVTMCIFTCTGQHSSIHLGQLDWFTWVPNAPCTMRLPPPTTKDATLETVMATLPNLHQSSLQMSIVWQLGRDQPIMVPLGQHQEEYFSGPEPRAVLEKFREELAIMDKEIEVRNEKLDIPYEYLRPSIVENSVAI
Briefly: biochemical. Type of experiment: tissue-based, Reticulocytes.

Experiment [2] addresses Beta-3 adrenergic receptor (Homo sapiens, UniProt P13945). Kind of experiment: DRUGMATRIX: Adrenergic beta3 radioligand binding (ligand: [125I] Cyanopindolol). The conditions noted are these: Not Active = under 50% inhibition at 10 µM. It counts as cell membranes, HEK293, Membrane.
Experiment [3] concerns the target Tyrosine-protein kinase Fyn (Homo sapiens, UniProt P06241). Kind of experiment: biochemical. It counts as cell-based, Insect cells.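 Further: enzymatic inhibition of Fyn kinase activity measured with Poly(Glu:Tyr) as the phosphorylation substrate; in other assays of this panel Not Active means under 50% inhibition at 10 µM.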
Experiment [4] deals with Sodium-dependent dopamine transporter (Homo sapiens, UniProt Q01959). Kind of experiment: DRUGMATRIX: Dopamine Transporter radioligand binding (ligand: [125I] RTI-55). Type of experiment: cell membranes, CHO-K1, Membrane. The following applies: Not Active = under 50% inhibition at 10 µM.
A short description of experiment [5]: DRUGMATRIX: Glutamate, NMDA, Phencyclidine radioligand binding (ligand: [3H] TCP). It counts as cell membranes, Rattus norvegicus, Wistar, Cerebral cortex, Membrane. The conditions noted are these: Not Active = under 50% inhibition at 10 µM.
Experiment [6] has as its target Delta-type opioid receptor (Homo sapiens, UniProt P41143). It counts as cell membranes, HEK293, Membrane. The following applies: hek293. Further: in other assays of this panel Not Active means under 50% inhibition at 10 µM.

*1 amine or outer side, *2 acyl side, *3 side chain or, on linkers, in order; H or OH if unused. Where a SMILES comes first, the peptide text is derived from it. Bridges are numbered along the chain shown (N, C = ends). Roman numbers before positions name the chains, in order. [ ]: non-standard residue; d: D form. Actinocin(1to9) = Cc1c2oc3c(C)ccc(C(=O)[*:2])c3nc-2c(C(=O)[*:1])c(N)c1=O; NMeV = CN[C@H](C(=O)O)C(C)C; Sar = CNCC(=O)O

Chain of Beta-3 adrenergic receptor (P13945 whole entry): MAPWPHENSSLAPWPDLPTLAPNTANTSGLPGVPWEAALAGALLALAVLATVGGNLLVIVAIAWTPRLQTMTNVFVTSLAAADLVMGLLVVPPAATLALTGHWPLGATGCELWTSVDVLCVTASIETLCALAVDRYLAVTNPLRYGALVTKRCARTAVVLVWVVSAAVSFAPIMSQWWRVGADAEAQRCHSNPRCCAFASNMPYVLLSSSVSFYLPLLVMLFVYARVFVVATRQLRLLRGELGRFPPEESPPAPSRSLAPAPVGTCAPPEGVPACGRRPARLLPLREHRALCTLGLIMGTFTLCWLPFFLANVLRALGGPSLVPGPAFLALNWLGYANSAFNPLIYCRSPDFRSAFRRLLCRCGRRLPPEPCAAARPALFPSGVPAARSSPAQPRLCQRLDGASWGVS
Chain of Delta-type opioid receptor (P41143 whole entry): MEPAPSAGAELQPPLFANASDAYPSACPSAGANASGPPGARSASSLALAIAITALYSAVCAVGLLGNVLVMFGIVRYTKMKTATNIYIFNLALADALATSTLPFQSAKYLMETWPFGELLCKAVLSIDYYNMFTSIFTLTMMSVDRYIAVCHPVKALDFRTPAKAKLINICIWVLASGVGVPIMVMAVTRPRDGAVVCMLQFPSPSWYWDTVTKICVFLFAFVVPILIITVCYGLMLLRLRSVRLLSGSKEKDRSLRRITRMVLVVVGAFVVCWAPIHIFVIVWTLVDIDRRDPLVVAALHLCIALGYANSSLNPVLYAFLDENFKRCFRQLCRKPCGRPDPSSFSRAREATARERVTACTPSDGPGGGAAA
Chain of Sodium-dependent dopamine transporter (Q01959 whole entry): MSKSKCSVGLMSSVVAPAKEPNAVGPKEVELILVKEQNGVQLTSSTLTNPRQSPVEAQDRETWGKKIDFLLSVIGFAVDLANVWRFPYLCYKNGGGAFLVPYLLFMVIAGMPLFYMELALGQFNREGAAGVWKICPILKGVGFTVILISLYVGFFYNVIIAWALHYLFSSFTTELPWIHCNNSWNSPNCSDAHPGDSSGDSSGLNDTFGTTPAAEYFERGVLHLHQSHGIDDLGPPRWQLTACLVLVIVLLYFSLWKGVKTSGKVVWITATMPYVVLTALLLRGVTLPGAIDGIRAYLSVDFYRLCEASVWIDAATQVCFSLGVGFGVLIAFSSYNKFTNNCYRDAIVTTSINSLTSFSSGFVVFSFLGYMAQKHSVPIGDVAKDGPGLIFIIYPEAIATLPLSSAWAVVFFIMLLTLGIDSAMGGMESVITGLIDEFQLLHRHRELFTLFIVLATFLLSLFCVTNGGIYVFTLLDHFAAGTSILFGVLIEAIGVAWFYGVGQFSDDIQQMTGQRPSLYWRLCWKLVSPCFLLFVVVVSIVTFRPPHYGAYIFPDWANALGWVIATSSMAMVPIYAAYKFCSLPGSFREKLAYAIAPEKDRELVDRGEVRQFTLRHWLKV
Chain of Tyrosine-protein kinase Fyn (P06241 whole entry): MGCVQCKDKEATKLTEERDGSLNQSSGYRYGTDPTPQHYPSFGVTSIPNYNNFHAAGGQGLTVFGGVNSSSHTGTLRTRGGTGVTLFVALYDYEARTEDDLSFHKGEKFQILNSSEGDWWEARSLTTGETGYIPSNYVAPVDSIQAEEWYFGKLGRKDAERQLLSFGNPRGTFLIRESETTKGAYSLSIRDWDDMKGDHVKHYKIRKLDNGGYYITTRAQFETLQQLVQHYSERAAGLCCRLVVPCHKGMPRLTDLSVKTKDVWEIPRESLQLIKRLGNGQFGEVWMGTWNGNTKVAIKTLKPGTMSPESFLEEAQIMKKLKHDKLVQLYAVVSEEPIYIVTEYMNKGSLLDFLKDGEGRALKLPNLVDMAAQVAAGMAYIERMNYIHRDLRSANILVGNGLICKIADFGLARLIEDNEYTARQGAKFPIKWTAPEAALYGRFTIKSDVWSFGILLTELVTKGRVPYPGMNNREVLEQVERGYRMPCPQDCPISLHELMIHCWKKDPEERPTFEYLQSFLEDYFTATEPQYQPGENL

With `COc1ccc(C[C@H]2NC[C@H](O)[C@H]2OC(C)=O)cc1` [ANISOMYCIN], the 50% inhibitory concentration (IC50) result in experiment [1] (reticulocytes), in experiment [2] (hek293), in experiment [3] (insect cells), in experiment [4] (cho-k1), in experiment [5] and in experiment [6] was “Not Active” in each case. Besides, the Ki entry in experiment [1] (reticulocytes), in experiment [2] (hek293), in experiment [3] (insect cells), in experiment [4] (cho-k1), in experiment [5] and in experiment [6] was “Not Active” throughout.

As for `CNNCc1ccc(C(=O)NC(C)C)cc1` [PROCARBAZINE], the IC50 result in experiment [1] (reticulocytes), in experiment [2] (hek293), in experiment [3] (insect cells), in experiment [4] (cho-k1), in experiment [5] and in experiment [6] was “Not Active” each time. In addition, the Ki result in experiment [5] is “Not Active”.

Take `Cc1onc(O)c1CC(N)C(=O)O` (racemic) [(R,S)-AMPA]: the IC50 entry in experiment [1] (reticulocytes), in experiment [2] (hek293), in experiment [3] (insect cells), in experiment [4] (cho-k1), in experiment [5] and in experiment [6] was “Not Active” each time. For the same molecule, in experiment [5], the Ki entry is “Not Active”.

For `Cc1c(O)c(=O)ccn1C` [DEFERIPRONE], the IC50 result in experiment [1] (reticulocytes), in experiment [2] (hek293), in experiment [3] (insect cells), in experiment [4] (cho-k1), in experiment [5] and in experiment [6] was “Not Active” throughout. For the same molecule, the Ki result in experiment [5] is given as “Not Active”.

As to `Nc1ncn([C@@H]2O[C@H](CO)[C@@H](O)[C@H]2O)c(=O)n1` [AZACITIDINE], the IC50 entry in experiment [1] (reticulocytes), in experiment [2] (hek293), in experiment [3] (insect cells), in experiment [4] (cho-k1), in experiment [5] and in experiment [6] was “Not Active” throughout. Also, the Ki entry in experiment [5] is listed as “Not Active”.

Consider `CCn1cc(C(=O)O)c(=O)c2cc(F)c(N3CCNCC3)cc21` [NORFLOXACIN], for which the IC50 result in experiment [1] (reticulocytes), in experiment [2] (hek293), in experiment [3] (insect cells), in experiment [4] (cho-k1), in experiment [5] and in experiment [6] was “Not Active” throughout. For the same molecule, the Ki entry in experiment [5] is on record as “Not Active”.

For the molecule `CN(C)CCCN1c2ccccc2Sc2ccc(Cl)cc21` [CHLORPROMAZINE], the concentration for half-maximal inhibition (IC50) is 16 µM in experiment [1] (read-out: IC50), “Not Active” in experiment [2] (hek293), 8.68 µM in experiment [3] (read-out: IC50) and “Not Active” in experiment [5]. Further, in experiment [5], the Ki result is given as “Not Active”.

Turning to `CCOC(=O)C1=C(COCCN)NC(C)=C(C(=O)OC)C1c1ccccc1Cl` (configuration not stated) [AMLODIPINE], the IC50 result in experiment [1] (reticulocytes), in experiment [2] (hek293), in experiment [3] (insect cells), in experiment [5] and in experiment [6] was “Not Active” throughout. For the same molecule, in experiment [5], the Ki entry is listed as “Not Active”.

For the molecule `CC1Cc2ccccc2N1NC(=O)c1ccc(Cl)c(S(N)(=O)=O)c1` (configuration not stated) [INDAPAMIDE], the IC50 in experiment [1] (read-out: IC50) was 2.92 µM; in experiment [2] (hek293) it was “Not Active”; in experiment [3] (insect cells) it was “Not Active”; in experiment [4] (cho-k1), “Not Active”; in experiment [5], “Not Active”; in experiment [6] it was “Not Active”. Besides, the inhibition constant Ki entry in experiment [5] is on record as “Not Active”.

Take LEAD (II) ACETATE: the IC50 entry in experiment [1] (reticulocytes), in experiment [2] (hek293), in experiment [4] (cho-k1), in experiment [5] and in experiment [6] was “Not Active” throughout. The Ki result in experiment [1] (reticulocytes), in experiment [2] (hek293), in experiment [4] (cho-k1), in experiment [5] and in experiment [6] was “Not Active” each time.

For the molecule `Cc1c2oc3c(C)ccc(C(=O)N[C@@H]4C(=O)N[C@H](C(C)C)C(=O)N5CCC[C@H]5C(=O)N(C)CC(=O)N(C)[C@@H](C(C)C)C(=O)O[C@@H]4C)c3nc-2c(C(=O)N[C@@H]2C(=O)N[C@H](C(C)C)C(=O)N3CCC[C@H]3C(=O)N(C)CC(=O)N(C)[C@@H](C(C)C)C(=O)O[C@@H]2C)c(N)c1=O` [DACTINOMYCIN] (I: T[dV]P[Sar][NMeV] / II: T[dV]P[Sar][NMeV]; ester I:1-I:C, II:1-II:C; linker I:N-II:N via Actinocin(1to9)), the IC50 entry in experiment [1] (reticulocytes), in experiment [2] (hek293), in experiment [3] (insect cells), in experiment [4] (cho-k1), in experiment [5] and in experiment [6] was “Not Active” each time. In addition, the inhibition constant (Ki) entry in experiment [5] was “Not Active”.

For `NCCCCCC(=O)O` [AMINOCAPROIC ACID], the IC50 entry in experiment [1] (reticulocytes), in experiment [2] (hek293), in experiment [3] (insect cells), in experiment [4] (cho-k1), in experiment [5] and in experiment [6] was “Not Active” each time. Besides, the Ki entry in experiment [5] is listed as “Not Active”.

Turning to `c1ccc(Nc2ccc(Nc3ccccc3)cc2)cc1`, the IC50 was 2.88 µM in experiment [1] (read-out: IC50); “Not Active” in experiment [2] (hek293); “Not Active” in experiment [3] (insect cells); “Not Active” in experiment [4] (cho-k1); “Not Active” in experiment [5]; “Not Active” in experiment [6]. For the same molecule, the Ki result in experiment [5] is recorded as “Not Active”.

Take `NC(=O)N1c2ccccc2CCc2ccccc21`: the IC50 result in experiment [1] (reticulocytes), in experiment [2] (hek293), in experiment [3] (insect cells), in experiment [4] (cho-k1), in experiment [5] and in experiment [6] was “Not Active” in each case. In experiment [5], the Ki entry was “Not Active”.

On to `Cc1ccc(-c2cc(C(F)(F)F)nn2-c2ccc(S(N)(=O)=O)cc2)cc1` [CELECOXIB], for which the IC50 entry in experiment [1] (reticulocytes) is “Not Active”; in experiment [2] (read-out: IC50), 16.1 µM; in experiment [3] (insect cells), “Not Active”; in experiment [4] (read-out: IC50), 2.43 µM; in experiment [5], “Not Active”; in experiment [6], “Not Active”. Moreover, the Ki was 12.1 µM in experiment [2] (read-out: Ki), 1.93 µM in experiment [4] (read-out: Ki) and “Not Active” in experiment [5].

With `Cc1onc(-c2ccccc2Cl)c1C(=O)N[C@@H]1C(=O)N2[C@@H]1SC(C)(C)[C@@H]2C(=O)O` [CLOXACILLIN], the IC50 entry in experiment [1] (reticulocytes), in experiment [2] (hek293), in experiment [3] (insect cells), in experiment [4] (cho-k1), in experiment [5] and in experiment [6] was “Not Active” throughout. The Ki result in experiment [5] is given as “Not Active”.

`CC(NC(C)(C)C)C(=O)c1cccc(Cl)c1` (configuration not stated) [BUPROPION]: the IC50 entry in experiment [1] (reticulocytes), in experiment [2] (hek293), in experiment [3] (insect cells), in experiment [5] and in experiment [6] was “Not Active” throughout. In addition, in experiment [5], the Ki entry is reported as “Not Active”.

As for `CNCCCN1c2ccccc2CCc2ccccc21` [DESIPRAMINE], the IC50 entry in experiment [1] (reticulocytes), in experiment [2] (hek293), in experiment [3] (insect cells), in experiment [5] and in experiment [6] was “Not Active” throughout. Besides, the Ki entry in experiment [5] is given as “Not Active”.

For CADMIUM ACETATE, the IC50 entry in experiment [1] (reticulocytes), in experiment [2] (hek293), in experiment [4] (cho-k1), in experiment [5] and in experiment [6] was “Not Active” throughout. Besides, the inhibition constant Ki result in experiment [1] (reticulocytes), in experiment [2] (hek293), in experiment [4] (cho-k1), in experiment [5] and in experiment [6] was “Not Active” in each case.

Consider `COc1cc2nc(N3CCN(C(=O)C4COc5ccccc5O4)CC3)nc(N)c2cc1OC` (configuration not stated) [DOXAZOSIN], for which the IC50 result in experiment [1] (reticulocytes), in experiment [2] (hek293), in experiment [3] (insect cells), in experiment [5] and in experiment [6] was “Not Active” throughout. Moreover, in experiment [5], the Ki entry is on record as “Not Active”.
